Experimental data as given in article PMC9571063 (Molecules, 2022).
Read-outs that look alike come from different tables or passages of the source.

Key:
HsCLK1 = molecular target: T1, HsCLK1 (Homo sapiens, UniProt P49759); assay: ADP-Glo kinase assay; assay type: biochemical
T1 construct: host or cells: Sf9 insect cells (baculovirus)

HsDYRK1A = molecular target: T2, HsDYRK1A (Homo sapiens, UniProt Q13627); assay: ADP-Glo kinase assay; assay type: biochemical; details: n=2, read-out: % of residual activity Hs_DYRK1A
T2 construct: host or cells: Sf9 insect cells (baculovirus)

MmCLK1 = molecular target: T3, MmCLK1 (Mus musculus, UniProt P22518); assay: ADP-Glo kinase assay; assay type: biochemical
T3 construct: host or cells: bacteria

Hs_CDK5/p25 = molecular target: T4, Hs_CDK5/p25 (Homo sapiens, UniProt Q00535); assay: ADP-Glo kinase assay, primary screen; assay type: biochemical; details: n=2, read-out: % of residual activity Hs_CDK5/p25
T4 construct: host or cells: bacteria

Hs_CDK9/CyclinT = molecular target: T5, Hs_CDK9/CyclinT (Homo sapiens, UniProt P50750); assay: ADP-Glo kinase assay, primary screen; assay type: biochemical; details: n=2, read-out: % of residual activity Hs_CDK9/CyclinT
T5 construct: host or cells: Sf9 insect cells (baculovirus)

Hs_PIM1 = molecular target: T6, Hs_PIM1 (Homo sapiens, UniProt P11309); assay: ADP-Glo kinase assay, primary screen; assay type: biochemical; details: n=2, read-out: % of residual activity Hs_PIM1
T6 construct: host or cells: Sf9 insect cells (baculovirus)

Rn_DYRK1A = molecular target: T7, Rn_DYRK1A (Rattus norvegicus, UniProt Q63470); assay: ADP-Glo kinase assay, primary screen; assay type: biochemical; details: n=2, read-out: % of residual activity Rn_DYRK1A
T7 construct: host or cells: bacteria

Hs_HASPIN = molecular target: T8, Hs_HASPIN (Homo sapiens, UniProt Q8TF76); assay: ADP-Glo kinase assay, primary screen; assay type: biochemical; details: n=2, read-out: % of residual activity Hs_HASPIN
T8 construct: host or cells: bacteria
T8 sequence (Q8TF76 1-798): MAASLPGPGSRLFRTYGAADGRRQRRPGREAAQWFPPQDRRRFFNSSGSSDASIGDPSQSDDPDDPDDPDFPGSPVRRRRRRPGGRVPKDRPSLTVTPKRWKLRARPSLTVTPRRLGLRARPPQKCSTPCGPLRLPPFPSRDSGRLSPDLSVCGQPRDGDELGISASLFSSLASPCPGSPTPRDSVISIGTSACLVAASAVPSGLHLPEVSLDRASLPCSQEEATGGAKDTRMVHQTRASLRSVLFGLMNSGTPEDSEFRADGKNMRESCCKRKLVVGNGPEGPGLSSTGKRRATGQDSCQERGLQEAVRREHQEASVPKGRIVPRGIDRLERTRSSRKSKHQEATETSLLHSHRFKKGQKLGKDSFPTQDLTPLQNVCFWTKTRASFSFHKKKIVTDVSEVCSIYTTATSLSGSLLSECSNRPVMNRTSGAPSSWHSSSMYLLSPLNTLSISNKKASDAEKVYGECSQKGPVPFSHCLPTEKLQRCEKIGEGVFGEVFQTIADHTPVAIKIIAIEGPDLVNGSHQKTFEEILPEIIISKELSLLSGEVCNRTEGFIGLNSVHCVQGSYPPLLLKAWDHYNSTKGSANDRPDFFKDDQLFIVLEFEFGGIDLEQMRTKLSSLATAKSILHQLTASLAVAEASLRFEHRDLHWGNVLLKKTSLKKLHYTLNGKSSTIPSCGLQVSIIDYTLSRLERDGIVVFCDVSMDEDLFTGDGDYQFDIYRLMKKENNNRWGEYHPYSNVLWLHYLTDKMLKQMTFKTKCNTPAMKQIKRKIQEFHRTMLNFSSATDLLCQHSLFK

Hs_GSK3β = molecular target: T9, Hs_GSK3β (Homo sapiens, UniProt P49841); assay: ADP-Glo kinase assay, primary screen; assay type: biochemical; details: n=2, read-out: % of residual activity Hs_GSK3β
T9 construct: host or cells: Sf9 insect cells (baculovirus)

Hs_CK1ε = molecular target: T10, Hs_CK1ε (Homo sapiens, UniProt P49674); assay: ADP-Glo kinase assay, primary screen; assay type: biochemical; details: n=2, read-out: % of residual activity Hs_CK1ε
T10 construct: host or cells: Sf9 insect cells (baculovirus)

[1] = cytotoxic assay, nuclei count (Hoechst, HCS); assay type: cell-based; details: human, HuH7 cells (hepatocellular carcinoma); 48 h treatment; read-out: Cytotoxic studies IC50 HuH7
[2] = cytotoxic assay, nuclei count (Hoechst, HCS); assay type: cell-based; details: human, MDA-MB-231 cells (breast carcinoma); 48 h treatment; read-out: Cytotoxic studies IC50 MDA-MB-231
[3] = cytotoxic assay, nuclei count (Hoechst, HCS); assay type: cell-based; details: human, 48 h treatment
Protocol: (§1) To complete our study, we performed a cytotoxicity screening of the 15 molecules, investigating 7 representative cancer cell lines. The compound’s effect on cell viability was evaluated on Huh-7 (hepatocellular carcinoma), CaCo2, HCT-116 (colorectal adenocarcinoma), MCF7, MDA-MB231, MDA-MB468 (breast carcinoma), PC3 (prostate carcinoma) and NCI-H727 (lung carcinoid). Human skin fibroblasts were used as reference for non-cancerous cells. Roscovitine, Doxorubicin and Taxol were used as positive controls. The cells were treated for 48 h with 25 µM compounds and fixed in cooled 90% ethanol/5% acetic acid for 20 min. The nuclei were stained with Hoechst 33342 and counted using HCS technology.
(§2) HuH7, CaCo-2, MDA-MB-231, HCT116, PC3, MCF7 and NCI-H727 cancer cell lines were obtained from the ECACC collection (Porton Down, UK). Cells were grown at 37 °C, 5% CO2 in ECACC recommended media: DMEM for HuH7, MDA-MB-231 and fibroblast, EMEM for MCF7and CaCo-2, McCoy’s for HCT116 and RPMI for PC3 and NCI-H727. All culture media were supplemented with 10% of FBS, 1% of penicillin-streptomycin and 2 mM glutamine.
(§3) Chemicals were solubilized in DMSO at a concentration of 10 mM (stock solution) and diluted in culture medium to the desired final concentrations.
[…] Cells were plated in 96 wells plates (4000 cells/well). Twenty-four hours after seeding, cells were exposed to chemicals. After 48 h of treatment, cells were washed in PBS and fixed in cooled 90% ethanol/5% acetic acid for 20 min and the nuclei were stained with Hoechst 33342 (B2261 Sigma). Image acquisition and analysis were performed using a CellomicsArrayScan VTI/HCS Reader (ThermoScientific, Waltham, MA, USA). The survival percentages were calculated as the percentage of cell number after compound treatment over cell number after DMSO treatment.

[4] = cytotoxic assay, nuclei count (Hoechst, HCS); assay type: cell-based; details: human, MCF7 cells (breast carcinoma); 48 h treatment; read-out: Cytotoxic studies IC50 MCF7
Protocol: as §1, §2, §3
(§4) The cytotoxic assay of chemical was performed at 25 µM. Cells were plated in 96 wells plates (4000 cells/well). Twenty-four hours after seeding, cells were exposed to chemicals. After 48 h of treatment, cells were washed in PBS and fixed in cooled 90% ethanol/5% acetic acid for 20 min and the nuclei were stained with Hoechst 33342 (B2261 Sigma). Image acquisition and analysis were performed using a CellomicsArrayScan VTI/HCS Reader (ThermoScientific, Waltham, MA, USA). The survival percentages were calculated as the percentage of cell number after compound treatment over cell number after DMSO treatment.

[5] = cytotoxic assay, nuclei count (Hoechst, HCS); assay type: cell-based, human; details: human, human skin fibroblasts (non-cancerous reference cells); 48 h treatment; some cells add low/moderate/high amplitude; read-out: Cytotoxic studies IC50 Fibroblasts
Protocol: as §1, §2, §3, §4

Human skin fibroblasts = assay: cytotoxic assay, nuclei count (Hoechst, HCS); assay type: cell-based; details: summary of Table S2
Protocol: as §1, §2, §3, §4

T3 sequence (P22518 whole entry): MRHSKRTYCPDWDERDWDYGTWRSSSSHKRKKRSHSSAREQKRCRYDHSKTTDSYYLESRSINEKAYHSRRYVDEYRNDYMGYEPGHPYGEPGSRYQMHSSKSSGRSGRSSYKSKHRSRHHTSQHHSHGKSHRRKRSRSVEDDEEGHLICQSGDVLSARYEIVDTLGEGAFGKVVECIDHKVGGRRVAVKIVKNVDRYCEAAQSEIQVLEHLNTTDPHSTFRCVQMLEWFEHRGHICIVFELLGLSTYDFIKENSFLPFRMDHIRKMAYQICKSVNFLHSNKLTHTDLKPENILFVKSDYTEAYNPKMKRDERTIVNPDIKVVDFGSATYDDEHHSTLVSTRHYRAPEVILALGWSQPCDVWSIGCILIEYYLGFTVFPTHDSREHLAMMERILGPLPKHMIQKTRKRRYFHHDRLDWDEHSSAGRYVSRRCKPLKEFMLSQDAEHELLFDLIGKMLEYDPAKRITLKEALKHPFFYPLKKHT
T5 sequence (P50750 whole entry): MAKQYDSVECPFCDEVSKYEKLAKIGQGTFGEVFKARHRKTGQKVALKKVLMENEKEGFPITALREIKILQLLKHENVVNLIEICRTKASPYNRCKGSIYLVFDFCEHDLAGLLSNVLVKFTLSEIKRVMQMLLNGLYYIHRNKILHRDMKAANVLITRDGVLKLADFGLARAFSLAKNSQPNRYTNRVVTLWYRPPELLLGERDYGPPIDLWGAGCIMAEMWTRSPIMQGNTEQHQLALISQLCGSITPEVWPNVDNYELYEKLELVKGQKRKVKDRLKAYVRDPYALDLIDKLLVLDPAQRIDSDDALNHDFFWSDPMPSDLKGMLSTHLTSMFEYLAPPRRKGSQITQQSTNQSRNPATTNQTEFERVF
T5 sequence (O60563 whole entry partner): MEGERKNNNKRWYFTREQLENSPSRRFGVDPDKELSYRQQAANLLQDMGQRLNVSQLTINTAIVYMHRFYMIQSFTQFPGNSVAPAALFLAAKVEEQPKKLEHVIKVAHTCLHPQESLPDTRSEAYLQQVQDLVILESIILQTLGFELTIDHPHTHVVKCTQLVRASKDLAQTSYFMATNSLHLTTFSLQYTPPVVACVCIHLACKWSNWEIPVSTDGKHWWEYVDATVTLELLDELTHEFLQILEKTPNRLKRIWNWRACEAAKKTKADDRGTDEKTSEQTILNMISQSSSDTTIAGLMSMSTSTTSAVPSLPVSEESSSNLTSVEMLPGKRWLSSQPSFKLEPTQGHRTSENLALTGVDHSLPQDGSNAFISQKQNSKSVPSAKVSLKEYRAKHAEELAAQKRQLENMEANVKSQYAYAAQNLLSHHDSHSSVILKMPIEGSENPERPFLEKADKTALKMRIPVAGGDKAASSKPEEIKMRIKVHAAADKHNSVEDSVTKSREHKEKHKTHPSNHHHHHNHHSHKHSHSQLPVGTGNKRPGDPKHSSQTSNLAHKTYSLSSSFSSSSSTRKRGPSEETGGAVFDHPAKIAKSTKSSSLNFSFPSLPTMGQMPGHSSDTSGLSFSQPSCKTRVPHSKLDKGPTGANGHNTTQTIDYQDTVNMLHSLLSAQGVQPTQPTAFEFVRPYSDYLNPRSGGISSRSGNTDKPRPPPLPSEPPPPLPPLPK
T1 sequence (P49759 whole entry): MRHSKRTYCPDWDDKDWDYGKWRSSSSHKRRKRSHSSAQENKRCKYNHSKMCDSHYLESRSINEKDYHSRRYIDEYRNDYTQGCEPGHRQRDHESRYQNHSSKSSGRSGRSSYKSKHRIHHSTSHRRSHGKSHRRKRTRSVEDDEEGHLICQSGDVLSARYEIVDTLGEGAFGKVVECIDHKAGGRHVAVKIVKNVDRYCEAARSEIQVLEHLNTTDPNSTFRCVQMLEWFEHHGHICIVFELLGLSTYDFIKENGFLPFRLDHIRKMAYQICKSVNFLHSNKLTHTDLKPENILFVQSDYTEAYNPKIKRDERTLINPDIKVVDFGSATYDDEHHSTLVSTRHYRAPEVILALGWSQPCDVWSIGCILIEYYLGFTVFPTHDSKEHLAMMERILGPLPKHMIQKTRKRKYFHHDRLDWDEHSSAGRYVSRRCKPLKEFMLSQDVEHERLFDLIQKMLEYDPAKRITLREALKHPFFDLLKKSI
T9 sequence (P49841 whole entry): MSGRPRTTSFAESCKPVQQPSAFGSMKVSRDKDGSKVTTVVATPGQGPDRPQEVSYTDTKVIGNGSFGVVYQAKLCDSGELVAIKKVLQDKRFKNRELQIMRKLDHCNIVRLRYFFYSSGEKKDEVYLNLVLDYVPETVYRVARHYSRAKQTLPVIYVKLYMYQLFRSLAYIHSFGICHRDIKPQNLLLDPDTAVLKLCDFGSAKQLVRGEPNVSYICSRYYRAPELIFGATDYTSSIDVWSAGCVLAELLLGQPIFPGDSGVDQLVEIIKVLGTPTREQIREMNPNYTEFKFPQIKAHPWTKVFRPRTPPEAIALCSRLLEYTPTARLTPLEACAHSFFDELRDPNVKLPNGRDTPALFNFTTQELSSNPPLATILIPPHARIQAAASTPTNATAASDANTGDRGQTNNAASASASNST
T4 sequence (Q00535 whole entry): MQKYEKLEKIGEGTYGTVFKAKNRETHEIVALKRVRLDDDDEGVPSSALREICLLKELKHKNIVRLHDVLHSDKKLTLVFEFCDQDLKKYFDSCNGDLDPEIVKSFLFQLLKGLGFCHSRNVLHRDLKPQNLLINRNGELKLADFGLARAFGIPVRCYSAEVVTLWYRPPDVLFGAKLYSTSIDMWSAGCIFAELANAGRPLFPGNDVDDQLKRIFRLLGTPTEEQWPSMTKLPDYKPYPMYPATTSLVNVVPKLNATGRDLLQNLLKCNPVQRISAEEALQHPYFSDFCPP
T4 sequence (Q15078 99-307 partner limits assumed): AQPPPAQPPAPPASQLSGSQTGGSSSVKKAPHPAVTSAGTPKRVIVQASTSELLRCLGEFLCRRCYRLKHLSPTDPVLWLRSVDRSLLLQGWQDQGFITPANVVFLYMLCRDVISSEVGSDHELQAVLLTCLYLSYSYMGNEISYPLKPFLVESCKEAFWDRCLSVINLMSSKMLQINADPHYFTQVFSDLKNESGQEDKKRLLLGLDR
T6 sequence (P11309 whole entry): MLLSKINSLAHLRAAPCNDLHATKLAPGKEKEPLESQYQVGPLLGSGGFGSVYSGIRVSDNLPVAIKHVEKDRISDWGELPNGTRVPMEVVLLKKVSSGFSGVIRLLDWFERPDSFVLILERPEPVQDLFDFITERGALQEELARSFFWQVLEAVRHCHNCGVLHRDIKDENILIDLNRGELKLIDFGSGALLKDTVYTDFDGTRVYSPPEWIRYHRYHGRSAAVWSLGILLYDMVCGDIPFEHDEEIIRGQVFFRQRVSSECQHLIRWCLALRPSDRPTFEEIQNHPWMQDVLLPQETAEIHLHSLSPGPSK
T10 sequence (P49674 whole entry): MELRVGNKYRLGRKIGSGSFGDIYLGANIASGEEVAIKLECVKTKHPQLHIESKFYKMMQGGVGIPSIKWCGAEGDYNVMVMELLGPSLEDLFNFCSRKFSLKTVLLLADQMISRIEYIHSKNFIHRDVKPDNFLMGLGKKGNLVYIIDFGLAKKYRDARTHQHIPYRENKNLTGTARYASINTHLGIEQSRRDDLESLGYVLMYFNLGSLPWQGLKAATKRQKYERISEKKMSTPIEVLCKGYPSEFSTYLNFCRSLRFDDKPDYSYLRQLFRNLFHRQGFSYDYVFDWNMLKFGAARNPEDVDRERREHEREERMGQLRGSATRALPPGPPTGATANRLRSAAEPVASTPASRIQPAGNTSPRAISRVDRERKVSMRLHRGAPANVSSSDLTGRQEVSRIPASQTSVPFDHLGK

With Cc1ccc(-n2cc(COc3cccc4cnc(Nc5ccccc5)nc34)nn2)c([N+](=O)[O-])c1 [7a, N-Phenyl-8-((1-(4-methyl-2-nitrophenyl)-1H-1,2,3-triazol-4-yl)methoxy)quinazolin-2-amine] the IC50 (HsCLK1; 10 µM ATP, duplicate, read-out: IC50 HsCLK1) was 1.1 µM, the “times less active than DB18 on human CLK1” value (HsCLK1; ratio of IC50 1100 and […] nM) was 100 times and the remaining activity at 1 µM (HsDYRK1A; 1 µM) was ≥ 100%. It also gave a remaining activity at 10 µM (HsDYRK1A; 10 µM) of 92%, a remaining activity at 1 µM (MmCLK1; 1 µM, n=2, read-out: % of residual activity Mm_CLK1) of 43% and a remaining activity at 10 µM (MmCLK1; 10 µM, n=2, read-out: % of residual activity Mm_CLK1) of 30%. For the same compound, the IC50 (MmCLK1; mouse CLK1 orthologue, read-out: IC50 MmCLK1) was 0.466 µM, the remaining activity at 1 µM (Hs_CDK5/p25; 1 µM) was ≥ 100% and the remaining activity at 10 µM (Hs_CDK5/p25; 10 µM) was 65%. It also gave a remaining activity at 1 µM (Hs_CDK9/CyclinT; 1 µM) of 55%, a remaining activity at 10 µM (Hs_CDK9/CyclinT; 10 µM) of 45% and a remaining activity at 1 µM (Hs_PIM1; 1 µM) of 81%. For the same compound, the remaining activity at 10 µM (Hs_PIM1; 10 µM) was 60%, the remaining activity at 1 µM (Rn_DYRK1A; 1 µM) was 56% and the remaining activity at 10 µM (Rn_DYRK1A; 10 µM) was 90%. It also gave a remaining activity at 1 µM (Hs_HASPIN; 1 µM) of 95%, a remaining activity at 10 µM (Hs_HASPIN; 10 µM) of 94% and a remaining activity at 1 µM (Hs_GSK3β; 1 µM) of 87%. For the same compound, the remaining activity at 10 µM (Hs_GSK3β; 10 µM) was 70%, the remaining activity at 1 µM (Hs_CK1ε; 1 µM) was 93% and the remaining activity at 10 µM (Hs_CK1ε; 10 µM) was 89%. It also gave an IC50 at 48 h [1] of 3 µM, an IC50 at 48 h [2] of 9 µM and an IC50 at 48 h ([3]; HCT116 cells (colorectal adenocarcinoma), read-out: Cytotoxic studies IC50 HCT116) of 7 µM. The IC50 at 48 h ([3]; MDA-MB-468 cells (breast carcinoma), read-out: Cytotoxic studies IC50 MDA-MB-468) was > 25 µM, the IC50 at 48 h [4] was 7 µM and the IC50 at 48 h [5] was > 25 µM. The “toxicity towards fibroblasts” value (Human skin fibroblasts) was “non-toxic”.
